The subject of this test is human keratinocytes. Nature of the test: Inhibition of apoptosis induced by growth factor deficiency, cell count and BrdU ELISA of cytoplasmic DNA fragments. Particulars: 30 ng/ml, percent of control. Format: cell-based. The procedure: The ability of the plant extracts of Cassia alata to prevent apoptosis induced by a deficiency of growth factors in human skin cells was investigated. The test was conducted in vitro on human fibroblasts and human keratinocytes. The human cells were cultivated in a nutrient medium (DMEM=Dulbecco […] from Life Technologie S.a.r.l.) containing 10% of foetal calf serum (from Dutcher). Bromodeoxyuridine (BrdU) was added to this nutrient medium. It was incorporated in the DNA and was subsequently used to detect the DNA fragments in the cytoplasm. After two days' incubation, the nutrient medium was replaced by nutrient medium (DMEM) with no foetal calf serum. The active substance to be tested was added. […] For comparison, a cell sample was incubated without any active substance to be tested (quantities and concentrations shown in Tables 5 and 6).
After incubation for one or two days at 37° C., the cells were recovered by trypsination using the Dunnebacke and Zitcer method described in Cell and Tissue Culture, Ed.: J. Paul, Churchill Livingstone, 1975, p. […] After the trypsin treatment, the cells were centrifuged and counted. The BrdU content in DNA fragments from the cytoplasm was then determined by the ELISA Test (ELISA Kit from Roche). […]
(In general: Uptake of a labelled nucleoside into DNA is a usual measure of proliferation.)

One substance from patent US8535731B2, “Use of extracts of the Cassia alata plant” (BASF Beauty Care Solutions France S.A.S., priority 2000, dated 2013) can be followed below.

On to “EGF: known growth factor Epidermal Growth Factor, polypeptide of 53 amino acids”, for which the Cell counting was 121% and the “Content of DNA fragments in the cytoplasm” value worked out at 32%.
